In PubChem BioAssay (NCI):
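Exposure lasted 48 hours, with cells grown in 96-well plates and compounds tested at five concentrations. TGI marks complete inhibition of growth.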

How the values were obtained:
Test in all cases: growth of human tumour cells (NCI), 48 h
K-562 leukemia = test system: K-562 leukemia
U251 CNS = test system: U251 CNS
UACC-257 melanoma = test system: UACC-257 melanoma
CAKI-1 renal = test system: CAKI-1 renal
M14 melanoma = test system: M14 melanoma
SR leukemia = test system: SR leukemia
OVCAR-5 ovarian = test system: OVCAR-5 ovarian
CCRF-CEM leukemia = test system: CCRF-CEM leukemia
DMS 114 small cell lung = test system: DMS 114 small cell lung
HCT-116 colon = test system: HCT-116 colon
RXF 393 renal = test system: RXF 393 renal
NCI-H522 lung = test system: NCI-H522 lung
MALME-3M melanoma = test system: MALME-3M melanoma
SK-MEL-5 melanoma = test system: SK-MEL-5 melanoma
SF-539 CNS = test system: SF-539 CNS
KM12 colon = test system: KM12 colon
786-0 renal = test system: 786-0 renal
SNB-78 CNS = test system: SNB-78 CNS
SK-MEL-28 melanoma = test system: SK-MEL-28 melanoma
TK-10 renal = test system: TK-10 renal
SNB-19 CNS = test system: SNB-19 CNS
SN12C renal = test system: SN12C renal
EKVX NSCLC = test system: EKVX NSCLC
HOP-18 NSCLC = test system: HOP-18 NSCLC
MOLT-4 leukemia = test system: MOLT-4 leukemia
OVCAR-3 ovarian = test system: OVCAR-3 ovarian
SF-268 CNS = test system: SF-268 CNS
HCT-15 colon = test system: HCT-15 colon
UACC-62 melanoma = test system: UACC-62 melanoma
SW-620 colon = test system: SW-620 colon
OVCAR-8 ovarian = test system: OVCAR-8 ovarian
HOP-92 NSCLC = test system: HOP-92 NSCLC
RPMI-8226 leukemia = test system: RPMI-8226 leukemia
SNB-75 CNS = test system: SNB-75 CNS
UO-31 renal = test system: UO-31 renal
HOP-62 NSCLC = test system: HOP-62 NSCLC
SF-295 CNS = test system: SF-295 CNS
NCI-H226 lung = test system: NCI-H226 lung
LOX IMVI melanoma = test system: LOX IMVI melanoma
A498 renal = test system: A498 renal
NCI-H23 lung = test system: NCI-H23 lung
HCC-2998 colon = test system: HCC-2998 colon
HL-60(TB) leukemia = test system: HL-60(TB) leukemia
DLD-1 colon = test system: DLD-1 colon
KM20L2 colon = test system: KM20L2 colon
IGROV1 ovarian = test system: IGROV1 ovarian
ACHN renal = test system: ACHN renal
SK-OV-3 ovarian = test system: SK-OV-3 ovarian
NCI-H460 lung = test system: NCI-H460 lung
LXFL 529 NSCLC = test system: LXFL 529 NSCLC
OVCAR-4 ovarian = test system: OVCAR-4 ovarian
COLO 205 colon = test system: COLO 205 colon
HT29 colon = test system: HT29 colon
A549 NSCLC = test system: A549 NSCLC
M19-MEL melanoma = test system: M19-MEL melanoma
RXF-631 renal = test system: RXF-631 renal
XF 498 CNS = test system: XF 498 CNS
SK-MEL-2 melanoma = test system: SK-MEL-2 melanoma
DMS 273 small cell lung = test system: DMS 273 small cell lung

O=C1NCCS(=O)(=O)N2CCC[C@@H]12
TGI (K-562 leukemia): > 100 µM | TGI (U251 CNS): > 100 µM | TGI (UACC-257 melanoma): > 100 µM | TGI (CAKI-1 renal): > 100 µM | TGI (M14 melanoma): > 100 µM | TGI (SR leukemia): > 100 µM | TGI (OVCAR-5 ovarian): > 100 µM | TGI (CCRF-CEM leukemia): > 100 µM | TGI (DMS 114 small cell lung): > 100 µM | TGI (HCT-116 colon): > 100 µM | TGI (RXF 393 renal): > 100 µM | TGI (NCI-H522 lung): > 100 µM | TGI (MALME-3M melanoma): > 100 µM | TGI (SK-MEL-5 melanoma): > 100 µM | TGI (SF-539 CNS): > 100 µM | TGI (KM12 colon): > 100 µM | TGI (786-0 renal): > 100 µM | TGI (SNB-78 CNS): > 100 µM | TGI (SK-MEL-28 melanoma): > 100 µM | TGI (TK-10 renal): > 100 µM | TGI (SNB-19 CNS): > 100 µM | TGI (SN12C renal): > 100 µM | TGI (EKVX NSCLC): > 100 µM | TGI (HOP-18 NSCLC): > 100 µM | TGI (MOLT-4 leukemia): > 100 µM | TGI (OVCAR-3 ovarian): > 100 µM | TGI (SF-268 CNS): > 100 µM | TGI (HCT-15 colon): > 100 µM | TGI (UACC-62 melanoma): > 100 µM | TGI (SW-620 colon): > 100 µM | TGI (OVCAR-8 ovarian): > 100 µM | TGI (HOP-92 NSCLC): > 100 µM | TGI (RPMI-8226 leukemia): > 100 µM | TGI (SNB-75 CNS): > 100 µM | TGI (UO-31 renal): > 100 µM | TGI (HOP-62 NSCLC): > 100 µM | TGI (SF-295 CNS): > 100 µM | TGI (NCI-H226 lung): > 100 µM | TGI (LOX IMVI melanoma): > 100 µM | TGI (A498 renal): > 100 µM | TGI (NCI-H23 lung): > 100 µM | TGI (HCC-2998 colon): > 100 µM | TGI (HL-60(TB) leukemia): > 100 µM | TGI (DLD-1 colon): > 100 µM | TGI (KM20L2 colon): > 100 µM | TGI (IGROV1 ovarian): > 100 µM | TGI (ACHN renal): > 100 µM | TGI (SK-OV-3 ovarian): > 100 µM | TGI (NCI-H460 lung): > 100 µM | TGI (LXFL 529 NSCLC): > 100 µM | TGI (OVCAR-4 ovarian): > 100 µM | TGI (COLO 205 colon): > 100 µM | TGI (HT29 colon): > 100 µM | TGI (A549 NSCLC): > 100 µM | TGI (M19-MEL melanoma): > 100 µM | TGI (RXF-631 renal): > 100 µM

O=C1c2ccccc2C(=O)c2[nH]c(Cc3ccc(F)cc3)nc21
TGI (K-562 leukemia): > 100 µM | TGI (U251 CNS): 47 µM | TGI (UACC-257 melanoma): 30.4 µM | TGI (CAKI-1 renal): 50.2 µM | TGI (M14 melanoma): 30.2 µM | TGI (SR leukemia): 55.5 µM | TGI (CCRF-CEM leukemia): > 100 µM | TGI (HCT-116 colon): 42.3 µM | TGI (RXF 393 renal): 30.2 µM | TGI (NCI-H522 lung): 34.3 µM | TGI (MALME-3M melanoma): 29.6 µM | TGI (SF-539 CNS): 32 µM | TGI (KM12 colon): 32.9 µM | TGI (786-0 renal): 43.8 µM | TGI (SK-MEL-28 melanoma): 35 µM | TGI (XF 498 CNS): 31.8 µM | TGI (TK-10 renal): 53.1 µM | TGI (SNB-19 CNS): 51.3 µM | TGI (SN12C renal): 51.3 µM | TGI (EKVX NSCLC): 39.8 µM | TGI (MOLT-4 leukemia): 71.2 µM | TGI (SK-MEL-2 melanoma): 29 µM | TGI (OVCAR-3 ovarian): 38.2 µM | TGI (SF-268 CNS): 66.3 µM | TGI (HCT-15 colon): 21.6 µM | TGI (UACC-62 melanoma): 35.5 µM | TGI (SW-620 colon): 38.3 µM | TGI (OVCAR-8 ovarian): 35.3 µM | TGI (HOP-92 NSCLC): 74.6 µM | TGI (RPMI-8226 leukemia): 95.8 µM | TGI (SNB-75 CNS): 38.3 µM | TGI (UO-31 renal): 59.5 µM | TGI (HOP-62 NSCLC): 44.3 µM | TGI (SF-295 CNS): 31.2 µM | TGI (NCI-H226 lung): 45.9 µM | TGI (HCC-2998 colon): 42.8 µM | TGI (HL-60(TB) leukemia): 55.2 µM | TGI (DLD-1 colon): 8.21 µM | TGI (KM20L2 colon): 34.4 µM | TGI (IGROV1 ovarian): 26.2 µM | TGI (DMS 273 small cell lung): 35.5 µM | TGI (ACHN renal): 31.2 µM | TGI (NCI-H460 lung): 31.1 µM | TGI (LXFL 529 NSCLC): 88.2 µM | TGI (OVCAR-4 ovarian): 34.9 µM | TGI (COLO 205 colon): 41 µM | TGI (HT29 colon): 30.3 µM | TGI (A549 NSCLC): 38.1 µM | TGI (M19-MEL melanoma): 34.2 µM | TGI (RXF-631 renal): 44.8 µM

CC1(C)CC(N(C(=O)/C=C/c2ccc([N+](=O)[O-])o2)C2CCCCC2)CC(C)(C)N1
TGI (U251 CNS): 18.1 µM | TGI (UACC-257 melanoma): 23.1 µM | TGI (CAKI-1 renal): 17.2 µM | TGI (M14 melanoma): 9.54 µM | TGI (SR leukemia): 21.2 µM | TGI (OVCAR-5 ovarian): 38.4 µM | TGI (CCRF-CEM leukemia): 13.3 µM | TGI (DMS 114 small cell lung): 6.87 µM | TGI (HCT-116 colon): 12 µM | TGI (NCI-H522 lung): 21.2 µM | TGI (SK-MEL-5 melanoma): 21.8 µM | TGI (SF-539 CNS): 21.8 µM | TGI (KM12 colon): 22.5 µM | TGI (786-0 renal): 19.4 µM | TGI (SNB-78 CNS): 26.5 µM | TGI (SK-MEL-28 melanoma): 25.1 µM | TGI (XF 498 CNS): 23.5 µM | TGI (TK-10 renal): 35.8 µM | TGI (SNB-19 CNS): 26.3 µM | TGI (SN12C renal): 18.9 µM | TGI (EKVX NSCLC): 27 µM | TGI (HOP-18 NSCLC): 37.4 µM | TGI (MOLT-4 leukemia): 18.2 µM | TGI (OVCAR-3 ovarian): 25.2 µM | TGI (SF-268 CNS): 20.5 µM | TGI (HCT-15 colon): 20.2 µM | TGI (UACC-62 melanoma): 21.6 µM | TGI (SW-620 colon): 6.01 µM | TGI (OVCAR-8 ovarian): 17.8 µM | TGI (HOP-92 NSCLC): 14.8 µM | TGI (RPMI-8226 leukemia): 12.9 µM | TGI (SNB-75 CNS): 22.3 µM | TGI (UO-31 renal): 24.5 µM | TGI (HOP-62 NSCLC): 34.5 µM | TGI (SF-295 CNS): 26.4 µM | TGI (LOX IMVI melanoma): 25.4 µM | TGI (A498 renal): 30.6 µM | TGI (NCI-H23 lung): 21.3 µM | TGI (HCC-2998 colon): 23.6 µM | TGI (HL-60(TB) leukemia): 6.4 µM | TGI (DLD-1 colon): 3.38 µM | TGI (KM20L2 colon): 18.8 µM | TGI (IGROV1 ovarian): 29.1 µM | TGI (DMS 273 small cell lung): 18 µM | TGI (ACHN renal): 25.4 µM | TGI (SK-OV-3 ovarian): 43.6 µM | TGI (NCI-H460 lung): 13.9 µM | TGI (LXFL 529 NSCLC): 17.8 µM | TGI (OVCAR-4 ovarian): 22.2 µM | TGI (HT29 colon): 15.4 µM | TGI (A549 NSCLC): 29.7 µM | TGI (M19-MEL melanoma): 16.9 µM | TGI (RXF-631 renal): 23.4 µM
